Reference: publication PMC9304199, “A small molecule CFTR potentiator restores ATP‐dependent channel gating to the cystic fibrosis mutant G551D‐CFTR” (British Journal of Pharmacology, 2022)

How the values were obtained:
G551D‐CFTR = G551D‐CFTR (Homo sapiens, UniProt P13569, G551D); assay: Automated planar patch-clamp whole-cell Cl− currents in HEK cells; type: cell-based; set-up: expressed in transfected cells; details: for EC50: G551D‐CFTR HEK cells, whole-cell currents, automated electrophysiology, 23°C, read-out: EC50 (μM) (95% CI); for Emax: HEK293, read-out: Maximal effect (%) (95% CI)
Description: For CFTR studies using automated electrophysiology and single-channel recording, we used baby hamster kidney (BHK) cells (RRID:CVCL_1915) and human embryonic kidney (HEK) 293 cells (RRID:CVCL_0045) stably expressing wild-type human CFTR and the CFTR variants F508del- and […] et al., [2002]; Xu et al., [2014]). […] HEK cells expressing CFTR variants were generated using the Flp-InTM system as described above for F508del- and G551D-CFTR-expressing FRT cells. They were cultured in Dulbecco's modified Eagle's medium (glucose, 1.5 g·L^-1; sodium pyruvate, 110 mg·L^-1) supplemented with 10% FBS (PAA Laboratories), GlutaMAXTM and hygromycin-B (150 μg·ml^-1; InvitrogenTM, Thermo Fisher Scientific) at 37°C in a humidified atmosphere with 5% CO2. Prior to study, F508del-CFTR expressed in HEK cells was trafficked to the plasma membrane by low temperature incubation (27°C for 24-72 h). The single-channel behaviour of human CFTR in excised membrane patches from different mammalian cell lines heterologously expressing CFTR is equivalent (wild-type CFTR, Chen et al., [2009]; F508del-CFTR, Bose et al., [2019]; and G551D-CFTR, J Liu, Y Wang, Z Cai, and DN Sheppard, unpublished observations). […] The continuous lines are the fit of sigmoidal concentration-response functions to mean data. […] (Figure S2D: Normality Test (Shapiro-Wilk), P = 0.124 (passed); Equal Variance Test (Brown-Forsythe), P = 0.092 (passed)). Click here for additional data file.

F508del‐CFTR = F508del‐CFTR (Homo sapiens, UniProt P13569, DEL508-508); assay: Ussing chamber apical Cl− current (ICl apical) in FRT epithelia expressing F508del‐CFTR; type: cell-based; set-up: assays at Charles River Laboratories (ChanTest); details: for EC50: F508del‐CFTR FRT epithelia, lumacaftor (5 μM) rescued, ICl apical, 27°C, read-out: EC50 (μM) (95% CI)
Description: Ussing chamber studies to determine the concentration–response relationships of CFTR potentiators (Figure 1c–f) were performed at Charles River Laboratories (ChanTest) (Cleveland, OH, USA). For these studies, FRT cells were stably transfected with CFTR cDNAs with the F508del and G551D variants and the common polymorphism M470 (synthesised by System Biosciences, Palo Alto, CA, USA) using the Flp‐In™ system (Thermo Fisher Scientific, Waltham, MA, USA). The F508del‐CFTR cDNA contained the following differences from the canonical CFTR cDNA sequence (NCBI Accession Number NM_000492): del CTT (1521–1523) to delete F508; synonymous changes T > C (798), A > G (801), T > C (804) to remove a cryptic bacterial promoter; synonymous change T > C (1095); G > A (1408) to give M470 and was amplified using the primers 5′ […] 3′ and 5′ […] 3′. The G551D‐CFTR cDNA contained the following differences from the canonical CFTR cDNA sequence (NCBI Accession Number NM_000492): G > A (1652) to replace G551 with D551; synonymous changes T > C (798), A > G (801), T > C (804) to remove a cryptic bacterial promoter; synonymous change A > C (516); synonymous change T > C (1095); G > A (1408) to give M470 and was amplified using the primers 5′ […] 3′ and 5′ […] 3′. Using Kpn1 and Not1 restriction sites, the F508del‐ and G551D‐CFTR cDNAs were inserted into pcDNA5/FRT (Flp‐In™) (RRID:Addgene_31984). […]
To test the effects of CP‐628006 on CFTR Cl^− channels in the apical membrane of FRT epithelia, we permeabilized the basolateral membrane with amphotericin B (100 μM). After cancelling voltage offsets, we clamped transepithelial voltage at 0 mV and measured apical Cl^− current (ICl ^apical) continuously using a Physiologic Instruments VCC MC6/8 multichannel voltage/current clamp (Li et al., [2004]).

F508del‐CFTR, sequence (P13569 with tags, fused parts or gaps DEL508-508): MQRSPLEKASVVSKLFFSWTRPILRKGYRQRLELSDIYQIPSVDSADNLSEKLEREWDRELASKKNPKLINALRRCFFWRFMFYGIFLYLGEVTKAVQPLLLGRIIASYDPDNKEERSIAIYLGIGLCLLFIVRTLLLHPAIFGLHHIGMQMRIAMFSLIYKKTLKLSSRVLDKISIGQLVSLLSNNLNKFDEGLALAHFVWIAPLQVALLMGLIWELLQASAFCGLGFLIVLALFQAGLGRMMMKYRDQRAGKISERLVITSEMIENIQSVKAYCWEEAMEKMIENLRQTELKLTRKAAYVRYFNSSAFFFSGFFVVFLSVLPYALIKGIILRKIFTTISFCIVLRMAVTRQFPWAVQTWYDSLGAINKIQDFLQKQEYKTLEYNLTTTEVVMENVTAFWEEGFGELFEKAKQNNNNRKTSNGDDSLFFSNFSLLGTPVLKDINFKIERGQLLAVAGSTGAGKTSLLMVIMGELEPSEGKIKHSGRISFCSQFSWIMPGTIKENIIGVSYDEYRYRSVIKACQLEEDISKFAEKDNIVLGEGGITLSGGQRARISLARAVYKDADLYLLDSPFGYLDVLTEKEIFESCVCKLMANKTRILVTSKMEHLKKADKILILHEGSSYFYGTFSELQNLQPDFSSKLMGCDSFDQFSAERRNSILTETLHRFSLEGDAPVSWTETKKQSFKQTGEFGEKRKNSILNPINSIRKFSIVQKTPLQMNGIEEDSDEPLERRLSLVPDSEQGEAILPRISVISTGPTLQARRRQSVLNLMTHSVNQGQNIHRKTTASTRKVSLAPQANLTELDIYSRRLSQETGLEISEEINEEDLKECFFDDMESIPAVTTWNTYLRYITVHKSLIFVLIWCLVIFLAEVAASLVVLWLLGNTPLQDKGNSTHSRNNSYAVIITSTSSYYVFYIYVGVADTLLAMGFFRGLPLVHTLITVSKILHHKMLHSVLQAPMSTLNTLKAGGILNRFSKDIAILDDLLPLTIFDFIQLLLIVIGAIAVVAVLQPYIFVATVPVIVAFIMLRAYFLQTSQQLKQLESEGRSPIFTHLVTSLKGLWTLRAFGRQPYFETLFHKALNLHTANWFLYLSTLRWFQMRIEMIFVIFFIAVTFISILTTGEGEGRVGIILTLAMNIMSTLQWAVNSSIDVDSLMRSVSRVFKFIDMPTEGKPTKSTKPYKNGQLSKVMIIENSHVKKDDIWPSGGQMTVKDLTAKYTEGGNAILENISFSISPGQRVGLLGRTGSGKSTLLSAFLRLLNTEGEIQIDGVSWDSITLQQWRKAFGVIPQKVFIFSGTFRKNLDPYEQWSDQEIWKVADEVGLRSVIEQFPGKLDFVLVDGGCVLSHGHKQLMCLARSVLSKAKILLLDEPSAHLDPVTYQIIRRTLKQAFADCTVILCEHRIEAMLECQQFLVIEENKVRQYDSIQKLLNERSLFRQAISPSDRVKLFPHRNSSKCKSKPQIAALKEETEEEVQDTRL
G551D‐CFTR, sequence (P13569 whole entry G551D): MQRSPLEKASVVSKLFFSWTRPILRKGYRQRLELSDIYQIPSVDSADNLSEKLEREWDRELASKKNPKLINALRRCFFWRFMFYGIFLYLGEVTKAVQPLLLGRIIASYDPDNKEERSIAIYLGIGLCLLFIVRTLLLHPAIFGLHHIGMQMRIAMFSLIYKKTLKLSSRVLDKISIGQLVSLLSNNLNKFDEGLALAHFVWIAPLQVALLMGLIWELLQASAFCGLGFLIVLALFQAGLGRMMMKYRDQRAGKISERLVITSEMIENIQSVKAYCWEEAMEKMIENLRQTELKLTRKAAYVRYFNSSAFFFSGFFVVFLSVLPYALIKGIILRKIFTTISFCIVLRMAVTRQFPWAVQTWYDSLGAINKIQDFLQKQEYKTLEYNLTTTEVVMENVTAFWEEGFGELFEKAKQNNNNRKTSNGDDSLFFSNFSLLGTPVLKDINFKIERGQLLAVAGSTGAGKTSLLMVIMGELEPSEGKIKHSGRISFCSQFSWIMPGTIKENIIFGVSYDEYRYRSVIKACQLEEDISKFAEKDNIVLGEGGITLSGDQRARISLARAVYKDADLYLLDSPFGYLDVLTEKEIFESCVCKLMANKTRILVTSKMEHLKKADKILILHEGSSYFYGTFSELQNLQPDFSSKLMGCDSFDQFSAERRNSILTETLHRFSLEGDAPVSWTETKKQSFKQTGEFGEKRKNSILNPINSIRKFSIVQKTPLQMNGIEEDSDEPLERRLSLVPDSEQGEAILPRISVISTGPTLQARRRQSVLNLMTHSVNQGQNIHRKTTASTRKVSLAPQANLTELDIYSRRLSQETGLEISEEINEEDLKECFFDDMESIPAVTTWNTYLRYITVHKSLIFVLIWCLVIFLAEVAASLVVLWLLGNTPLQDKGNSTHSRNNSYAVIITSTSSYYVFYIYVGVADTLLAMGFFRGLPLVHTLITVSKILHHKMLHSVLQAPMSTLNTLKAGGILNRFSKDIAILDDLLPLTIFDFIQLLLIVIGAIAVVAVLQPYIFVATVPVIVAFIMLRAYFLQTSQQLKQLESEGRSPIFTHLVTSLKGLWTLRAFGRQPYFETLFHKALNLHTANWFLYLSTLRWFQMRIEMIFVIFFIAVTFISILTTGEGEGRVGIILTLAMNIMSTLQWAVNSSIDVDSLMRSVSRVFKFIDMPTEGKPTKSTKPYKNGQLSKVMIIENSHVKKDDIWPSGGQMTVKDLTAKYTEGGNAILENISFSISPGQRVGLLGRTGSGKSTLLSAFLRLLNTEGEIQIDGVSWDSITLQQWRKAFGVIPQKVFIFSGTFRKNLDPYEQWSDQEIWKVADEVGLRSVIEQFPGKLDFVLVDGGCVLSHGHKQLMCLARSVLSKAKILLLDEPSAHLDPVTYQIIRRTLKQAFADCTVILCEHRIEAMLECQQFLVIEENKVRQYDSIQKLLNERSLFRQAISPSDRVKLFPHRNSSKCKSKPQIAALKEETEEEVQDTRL

| Structure (SMILES) | EC50 (G551D‐CFTR) [µM] | Emax (G551D‐CFTR) [%] | EC50 (F508del‐CFTR) [µM] | Emax (F508del‐CFTR; read-out: Maximal effect (%) (95% CI)) |
| --- | --- | --- | --- | --- |
| Cc1ncccc1CNC(=O)c1ccc2c(c1)CC[C@H]1C[C@](O)(CCC(F)(F)F)CC[C@]21Cc1ccccc1 (racemic) [CP‐628006, rac‐(4bR,7R,8aS)‐4b‐benzyl‐7‐hydroxy‐N‐((2‐methylpyridin‐3‐yl)methyl)‐7‐(3,3,3‐trifluoropropyl)‐4b,5,6,7,8,8a,9,10‐octahydrophenanthrene‐2‐carboxamide] | 5.13 | 72 | > 0.5 | – |
| CC(C)(C)c1cc(C(C)(C)C)c(NC(=O)c2c[nH]c3ccccc3c2=O)cc1O [ivacaftor, reference compound] | 0.82 | 70 | 0.002 | 103 |
